This assay can be described thus: Inhibition of Saccharomyces cerevisiae alpha-glucosidase using p-nitrophenyl-alpha-D-glucopyranoside as substrate preincubated for 15 mins followed by substrate addition measured after 30 mins by spectrophotometric method.

Each structure is given as a SMILES string.

In general, IC50 refers to the midpoint of a concentration-inhibition curve. The low end stands for greater potency, the high end for weaker potency. `Cc1ccc(NC(=O)CSc2nnc(-c3ccccc3)c(-c3ccccc3)n2)c(C)c1` displayed an IC50 of 67.2 µM.

The compound `Cc1ccc(NC(=O)CSc2nnc(-c3ccccc3)c(-c3ccccc3)n2)c([N+](=O)[O-])c1` yielded an IC50 of 45.6 µM.

`O=C(CSc1nnc(-c2ccccc2)c(-c2ccccc2)n1)Nc1ccc(Cl)cc1`: it took 14.1 µM to reach half-maximal inhibition (IC50).

In the case of `O=C(CSc1nnc(-c2ccccc2)c(-c2ccccc2)n1)Nc1ccc(C(F)(F)F)cc1`, the IC50 was 34.9 µM.

As to `Cc1ccc(NC(=O)CSc2nnc(-c3ccccc3)c(-c3ccccc3)n2)cc1`, the IC50 turned out to be 52 µM.

For the compound `COc1ccc(NC(=O)CSc2nnc(-c3ccccc3)c(-c3ccccc3)n2)cc1`, the IC50 was determined as 49.4 µM.

For the compound `CCOc1ccc(NC(=O)CSc2nnc(-c3ccccc3)c(-c3ccccc3)n2)cc1`, the IC50 amounted to 26.3 µM.

Compound `O=C(CSc1nnc(-c2ccccc2)c(-c2ccccc2)n1)Nc1ccc(F)cc1` displayed an IC50 of 50.6 µM.

Consider `Cc1ccccc1NC(=O)CSc1nnc(-c2ccccc2)c(-c2ccccc2)n1`, for which half-maximal inhibition (IC50) was put at 72.7 µM.

Take `Cc1cccc(NC(=O)CSc2nnc(-c3ccccc3)c(-c3ccccc3)n2)c1`: the midpoint of inhibition, the IC50, lay at 42.5 µM.

As for `COc1ccc(NC(=O)CSc2nnc(-c3ccccc3)c(-c3ccccc3)n2)c([N+](=O)[O-])c1`, 47 µM corresponded to half-maximal inhibition (IC50).

`O=C(CSc1nnc(-c2ccccc2)c(-c2ccccc2)n1)Nc1ccc([N+](=O)[O-])cc1` had an IC50 of 12.5 µM.

With `O=C(CSc1nnc(-c2ccccc2)c(-c2ccccc2)n1)Nc1ccc(Cl)cc1Cl`, half-maximal inhibition (IC50) was put at 36.8 µM.

On to `O=C(CSc1nnc(-c2ccccc2)c(-c2ccccc2)n1)Nc1cc(Cl)ccc1Cl`, for which the midpoint of inhibition, the IC50, lay at 28 µM.

`O=C(CSc1nnc(-c2ccccc2)c(-c2ccccc2)n1)Nc1ccc(Oc2ccccc2)cc1` showed an IC50 of 25.2 µM.

The compound `CCOc1ccccc1NC(=O)CSc1nnc(-c2ccccc2)c(-c2ccccc2)n1` yielded an IC50 of 16 µM.

For the compound `O=C(CSc1nnc(-c2ccccc2)c(-c2ccccc2)n1)Nc1ccccc1`, the IC50 was determined as 71.1 µM.

Source of the values: ChEMBL document CHEMBL3994658, “Synthesis, molecular docking and α-glucosidase inhibition of 2-((5,6-diphenyl-1,2,4-triazin-3-yl)thio)-N-arylacetamides” (Bioorg Med Chem Lett, 2017).
